Laboratory results as given in ChEMBL document CHEMBL1201862, “PubChem BioAssay data set” (2004).
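Briefly, cells in 96-well plates were exposed to five compound concentrations for 48 h, and endpoints were estimated by linear interpolation. Abbreviation: GI50, concentration required for 50% inhibition of growth.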 Calls of active or inactive are those of the source. Cut-off read from the data, not from the text of the source: active = GI50 up to about 1.1 µM and inactive = higher.

How the values were obtained:
Test in all cases: inhibition of tumour cell growth, NCI panel, 48 h
MDA-MB-435 = test system: MDA-MB-435
SK-OV-3 = test system: SK-OV-3
DU-145 = test system: DU-145
LOX IMVI = test system: LOX IMVI
NCI-H460 = test system: NCI-H460
CAKI-1 = test system: CAKI-1
SK-MEL-5 = test system: SK-MEL-5
MCF7 = test system: MCF7
NCI-H522 = test system: NCI-H522
U-251 = test system: U-251
RXF 393 = test system: RXF 393
OVCAR-3 = test system: OVCAR-3
MDA-MB-231 = test system: MDA-MB-231
BT-549 = test system: BT-549
IGROV-1 = test system: IGROV-1
M14 = test system: M14
SR = test system: SR
HCT-116 = test system: HCT-116
A549 = test system: A549
Malme-3M = test system: Malme-3M
HOP-92 = test system: HOP-92
SK-MEL-28 = test system: SK-MEL-28
SF-539 = test system: SF-539
UO-31 = test system: UO-31
HT-29 = test system: HT-29
KM12 = test system: KM12
NCI-H23 = test system: NCI-H23
UACC-62 = test system: UACC-62
HL-60 = test system: HL-60
NCI/ADR-RES = test system: NCI/ADR-RES
T47D = test system: T47D
SF-295 = test system: SF-295
PC-3 = test system: PC-3
MOLT-4 = test system: MOLT-4
A498 = test system: A498
SW-620 = test system: SW-620
SK-MEL-2 = test system: SK-MEL-2
TK-10 = test system: TK-10
EKVX = test system: EKVX
UACC-257 = test system: UACC-257
Hs-578T = test system: Hs-578T
786-0 = test system: 786-0
K562 = test system: K562
HCC 2998 = test system: HCC 2998
ACHN = test system: ACHN
OVCAR-5 = test system: OVCAR-5
RPMI-8226 = test system: RPMI-8226
COLO 205 = test system: COLO 205
OVCAR-8 = test system: OVCAR-8
SNB-19 = test system: SNB-19
SF-268 = test system: SF-268
HOP-62 = test system: HOP-62
CCRF-CEM = test system: CCRF-CEM
HCT-15 = test system: HCT-15
NCI-H226 = test system: NCI-H226
SN12C = test system: SN12C
OVCAR-4 = test system: OVCAR-4

COc1cc(Nc2nc3ccccc3n3cccc23)cc(OC)c1OC
GI50 (MDA-MB-435): > 100 µM (inactive) | GI50 (SK-OV-3): 37.3 µM (inactive) | GI50 (DU-145): > 100 µM (inactive) | GI50 (LOX IMVI): > 100 µM (inactive) | GI50 (NCI-H460): > 100 µM (inactive) | GI50 (CAKI-1): > 100 µM (inactive) | GI50 (SK-MEL-5): > 100 µM (inactive) | GI50 (MCF7): > 100 µM (inactive) | GI50 (NCI-H522): > 100 µM (inactive) | GI50 (U-251): 47.8 µM (inactive) | GI50 (RXF 393): 17.5 µM (inactive) | GI50 (OVCAR-3): > 100 µM (inactive) | GI50 (MDA-MB-231): 27.1 µM (inactive) | GI50 (BT-549): 68.9 µM (inactive) | GI50 (IGROV-1): 54.7 µM (inactive) | GI50 (M14): > 100 µM (inactive) | GI50 (SR): > 100 µM (inactive) | GI50 (HCT-116): > 100 µM (inactive) | GI50 (A549): > 100 µM (inactive) | GI50 (Malme-3M): > 100 µM (inactive) | GI50 (HOP-92): 44.2 µM (inactive) | GI50 (SK-MEL-28): > 100 µM (inactive) | GI50 (SF-539): > 100 µM (inactive) | GI50 (UO-31): > 100 µM (inactive) | GI50 (HT-29): > 100 µM (inactive) | GI50 (KM12): > 100 µM (inactive) | GI50 (NCI-H23): 73.8 µM (inactive) | GI50 (UACC-62): > 100 µM (inactive) | GI50 (HL-60): 47.8 µM (inactive) | GI50 (NCI/ADR-RES): > 100 µM (inactive) | GI50 (T47D): 0.276 µM (active) | GI50 (SF-295): 63.5 µM (inactive) | GI50 (PC-3): > 100 µM (inactive) | GI50 (MOLT-4): > 100 µM (inactive) | GI50 (A498): > 100 µM (inactive) | GI50 (SW-620): > 100 µM (inactive) | GI50 (SK-MEL-2): 52.5 µM (inactive) | GI50 (TK-10): 36.3 µM (inactive) | GI50 (EKVX): > 100 µM (inactive) | GI50 (UACC-257): > 100 µM (inactive) | GI50 (Hs-578T): 64.4 µM (inactive) | GI50 (786-0): 94.8 µM (inactive) | GI50 (K562): > 100 µM (inactive) | GI50 (HCC 2998): > 100 µM (inactive) | GI50 (ACHN): > 100 µM (inactive) | GI50 (OVCAR-5): > 100 µM (inactive) | GI50 (RPMI-8226): > 100 µM (inactive) | GI50 (COLO 205): > 100 µM (inactive) | GI50 (OVCAR-8): 20.3 µM (inactive) | GI50 (SNB-19): 98.2 µM (inactive) | GI50 (SF-268): 28.5 µM (inactive) | GI50 (HOP-62): 19.1 µM (inactive) | GI50 (CCRF-CEM): > 100 µM (inactive) | GI50 (HCT-15): > 100 µM

CSCCC(NC(=O)Cc1ccc(C(=O)c2ccccc2)cc1)C(=O)N1CCN(CCCCN2c3ccccc3Sc3cc(N=[N+]=[N-])ccc32)CC1 (centres undefined)
GI50 (SK-OV-3): > 100 µM (inactive) | GI50 (DU-145): 47 µM (inactive) | GI50 (LOX IMVI): > 100 µM (inactive) | GI50 (NCI-H460): > 100 µM (inactive) | GI50 (CAKI-1): > 100 µM (inactive) | GI50 (SK-MEL-5): 30.2 µM (inactive) | GI50 (NCI-H226): 78.2 µM (inactive) | GI50 (MCF7): 73.3 µM (inactive) | GI50 (NCI-H522): 92 µM (inactive) | GI50 (U-251): > 100 µM (inactive) | GI50 (RXF 393): 89.9 µM (inactive) | GI50 (OVCAR-3): > 100 µM (inactive) | GI50 (MDA-MB-231): > 100 µM (inactive) | GI50 (BT-549): > 100 µM (inactive) | GI50 (IGROV-1): > 100 µM (inactive) | GI50 (HCT-116): 65.8 µM (inactive) | GI50 (SN12C): > 100 µM (inactive) | GI50 (Malme-3M): > 100 µM (inactive) | GI50 (HOP-92): > 100 µM (inactive) | GI50 (UO-31): 34.8 µM (inactive) | GI50 (HT-29): > 100 µM (inactive) | GI50 (KM12): 20.4 µM (inactive) | GI50 (NCI-H23): 27.9 µM (inactive) | GI50 (UACC-62): > 100 µM (inactive) | GI50 (HL-60): 30.6 µM (inactive) | GI50 (SF-295): 47.6 µM (inactive) | GI50 (PC-3): 65.9 µM (inactive) | GI50 (MOLT-4): > 100 µM (inactive) | GI50 (A498): 72.3 µM (inactive) | GI50 (SK-MEL-2): > 100 µM (inactive) | GI50 (TK-10): > 100 µM (inactive) | GI50 (EKVX): > 100 µM (inactive) | GI50 (UACC-257): > 100 µM (inactive) | GI50 (786-0): > 100 µM (inactive) | GI50 (K562): > 100 µM (inactive) | GI50 (HCC 2998): > 100 µM (inactive) | GI50 (ACHN): > 100 µM (inactive) | GI50 (OVCAR-5): > 100 µM (inactive) | GI50 (RPMI-8226): 68.1 µM (inactive) | GI50 (COLO 205): > 100 µM (inactive) | GI50 (OVCAR-4): 16.5 µM (inactive) | GI50 (SF-268): > 100 µM (inactive) | GI50 (HOP-62): > 100 µM (inactive) | GI50 (CCRF-CEM): 49.3 µM (inactive) | GI50 (HCT-15): > 100 µM
